Measurements: the Deep4Chem optical property database
Each block holds one compound with its values, some of them ahead of it.

Experiment: solvent given as SMILES

SMILES: CN(C)c1ccc(C2=Nc3scc(-c4ccc(N(C)C)cc4)[n+]3[B-](F)(F)O2)cc1
- fluorescence lifetime (in C1CCOC1): 0.21 ns

SMILES: CCC1=C(C)C2=Cc3c(I)c(I)c(I)n3[B-](F)(F)[N+]2=C1C
- fluorescence lifetime (in C1CCCCC1): 0.358 ns
- fluorescence lifetime (in CC(C)=O): 0.198 ns
- fluorescence lifetime (in CCO): 0.244 ns
- fluorescence lifetime (in CCOC(C)=O): 0.236 ns
- fluorescence lifetime (in CO): 0.22 ns
- fluorescence lifetime (in OCC(F)(F)F): 0.18 ns

SMILES: CCC1=C(C)C2C(c3ccc(-c4ccc(-c5nc6c7ccccc7c7ccccc7c6n5-c5ccc(C(C)(C)C)cc5)cc4)cc3)c3c(C)c(CC)c(C)n3[B-](F)(F)[N+]2=C1C (centres undefined)
- fluorescence lifetime (in ClC(Cl)Cl): 17 ns

SMILES: O=S(=O)([O-])CCC[n+]1c2ccccc2cc2ccccc21
- fluorescence lifetime (in O): 31.2 ns

SMILES: CC(C)(C)c1ccc2c(c1)c1cc(C(C)(C)C)ccc1n2-c1cc(C(=O)c2ccccn2)cc(-n2c3ccc(C(C)(C)C)cc3c3cc(C(C)(C)C)ccc32)c1
- fluorescence lifetime (in c1cc(-c2cccc(-n3c4ccccc4c4ccccc43)c2)cc(-n2c3ccccc3c3ccccc32)c1): 5.3 ns

SMILES: CC(C)(C)c1ccc2c(c1)c1cc(C(C)(C)C)ccc1n2-c1cc(N2c3ccccc3C(c3ccccc3)(c3ccccc3)c3ccccc32)cc(-n2c3ccc(C(C)(C)C)cc3c3cc(C(C)(C)C)ccc32)c1C#N
- fluorescence lifetime (in Cc1ccccc1): 14.2 ns

SMILES: Cc1ccc(C2=C3C=CC(Cl)=[N+]3[B-](F)(F)n3c(Cl)ccc32)cc1
- fluorescence lifetime (in C1CCCCC1): 2.1 ns
- fluorescence lifetime (in C1CCOC1): 2.1 ns
- fluorescence lifetime (in CC#N): 1.87 ns
- fluorescence lifetime (in CCOC(C)=O): 2.07 ns
- fluorescence lifetime (in CO): 1.88 ns
- fluorescence lifetime (in Cc1ccccc1): 3.26 ns
- fluorescence lifetime (in ClC(Cl)Cl): 3.66 ns

SMILES: Fc1c(-c2nnc(-c3ccccc3)o2)c(-n2c3ccccc3c3ccccc32)c(F)c(-n2c3ccccc3c3ccccc32)c1-n1c2ccccc2c2ccccc21
- fluorescence lifetime (in Cc1ccccc1): 7.7 ns

SMILES: COc1ccc(C2=C3C(C)=CC(C=Cc4ccc(C(=O)OC5C[C@H]6CCC5(C)C6(C)C)cc4)=[N+]3[B-](F)(F)n3c(/C=C/c4ccc(C(=O)OC5CC6CCC5(C)C6(C)C)cc4)cc(C)c32)cc1 (some centres undefined)
- fluorescence lifetime (in Cc1ccccc1): 2.6 ns

SMILES: Cc1cc(C)c(B(c2ccc(-c3cc4ccc5cccc6ccc(c3)c4c56)cc2)c2c(C)cc(C)cc2C)c(C)c1
- fluorescence lifetime (in Cc1ccccc1): 65 ns

SMILES: CCCCc1cc(CCCC)c2ccc3c(CCCC)cc(CCCC)c4ccc1c2c43
- fluorescence lifetime (in CCCCCC): 65.8 ns
- fluorescence lifetime (in CO): 75 ns
- fluorescence lifetime (in ClCCl): 56.7 ns

SMILES: O=C1O[B-]2(OC1=O)OC(c1ccccc1)=CC(c1ccc3ccccc3c1)=[O+]2
- fluorescence lifetime (in CC#N): 5.4 ns
- fluorescence lifetime (in ClC(Cl)(Cl)Cl): 1.6 ns

SMILES: CN(C)c1ccc(-c2nc(C#N)c(C#N)n2C)cc1
- fluorescence lifetime (in C1CCCCC1): 1.3 ns
- fluorescence lifetime (in ClC(Cl)Cl): 3.5 ns

Further lines, results first:

- fluorescence lifetime (in ClCCl): 4.82 ns
SMILES: CCOC(=O)COc1ccc(/C=C/C2=C3c4ccccc4C(c4[nH]c(C)cc4C)=[N+]3[B-](F)(F)n3c(/C=C/c4ccc(OCC(=O)OCC)cc4)cc(C)c32)cc1

- fluorescence lifetime (in CCCCCC): 6.62 ns
- fluorescence lifetime (in CO): 6.69 ns
- fluorescence lifetime (in ClCCl): 6.16 ns
SMILES: CC1=C2C=CC=[N+]2[B-](F)(F)n2cccc21

- fluorescence lifetime (in CCCCCCCCO): 0.8 ns
- fluorescence lifetime (in CCO): 0.17 ns
- fluorescence lifetime (in CO): 0.11 ns
- fluorescence lifetime (in ClC(Cl)Cl): 0.92 ns
- fluorescence lifetime (in ClCCl): 0.74 ns
SMILES: CCCCCCCCCCCCCCCCN(CCCCCCCCCCCCCCCC)c1ccc(/C=C/c2cc[n+](Cc3cc(C[n+]4ccc(/C=C/c5ccc(N(CCCCCCCCCCCCCCCC)CCCCCCCCCCCCCCCC)cc5)cc4)cc(C[n+]4ccc(/C=C/c5ccc(N(CCCCCCCCCCCCCCCC)CCCCCCCCCCCCCCCC)cc5)cc4)c3)cc2)cc1

- fluorescence lifetime (in CCCCCCC): 102 ns
SMILES: c1ccc(Nc2nc(Nc3ccccc3)nc(Nc3cc4ccc5cccc6ccc(c3)c4c56)n2)cc1

- fluorescence lifetime (in CC#N): 4.92 ns
- fluorescence lifetime (in ClCCl): 4.98 ns
SMILES: COc1ccc2nc(/N=N/c3ccc(N(C)C)cc3)sc2c1

- fluorescence lifetime (in ClCCl): 7.1 ns
SMILES: Cc1cccc2[n+]1[B-](F)(F)n1c(c3cccc4cccc1c43)=N2

- fluorescence lifetime (in ClCCl): 7 ns
SMILES: COc1ccc(C#Cc2c3ccccc3c(C#Cc3ccc(OC)cc3)c3cc4ccccc4cc23)cc1

- fluorescence lifetime (in CC#N): 1.69 ns
- fluorescence lifetime (in CCO): 2.94 ns
- fluorescence lifetime (in CN(C)C=O): 2.16 ns
- fluorescence lifetime (in O): 1.74 ns
SMILES: CCOC(=O)c1ccccc1-c1c2ccc(=[N+](CC)CC)cc-2oc2cc(N(CC)CC)ccc12

- fluorescence lifetime (in C1CCOC1): 2.31 ns
- fluorescence lifetime (in C1COCCO1): 2.36 ns
- fluorescence lifetime (in CC#N): 2.38 ns
- fluorescence lifetime (in CC(C)O): 1.86 ns
- fluorescence lifetime (in CCO): 1.93 ns
- fluorescence lifetime (in CCOC(C)=O): 2.27 ns
- fluorescence lifetime (in CN(C)C=O): 2.4 ns
- fluorescence lifetime (in CO): 1.62 ns
- fluorescence lifetime (in CS(C)=O): 2.45 ns
- fluorescence lifetime (in O): 3.16 ns
SMILES: NS(=O)(=O)c1ccc(N2N=C(c3ccc(O)cc3)CC2c2ccccc2)cc1 (centres undefined)

- fluorescence lifetime (in C1CCCCC1): 0.61 ns
- fluorescence lifetime (in C1COCCO1): 1.3 ns
- fluorescence lifetime (in CC#N): 0.291 ns
- fluorescence lifetime (in CN(C)C=O): 4.11 ns
- fluorescence lifetime (in CO): 0.25 ns
- fluorescence lifetime (in O): 0.281 ns
- fluorescence lifetime (in OCC(O)CO): 5.79 ns
- fluorescence lifetime (in OCCO): 2.52 ns
SMILES: COc1cc(/C=C2/SC(=O)NC2=O)ccc1O

- fluorescence lifetime (in O): 11.3 ns
SMILES: Nc1ncc2nc[nH]c2n1

- fluorescence lifetime (in CC#N): 16.9 ns
SMILES: COc1cc(/C=C/c2ccccc2)cc(OC)c1

- fluorescence lifetime (in CO): 22.7 ns
SMILES: CCOC(=O)CCCCCn1c2ccc(F)cc2c(=O)c2cc3c(cc21)c(=O)c1cc(F)ccc1n3CCCCCC(=O)OCC

- fluorescence lifetime (in ClCCl): 15.4 ns
SMILES: COc1ccc(-c2c3cc4ccccc4cc3c(-c3ccc(OC)cc3)c3cc4sc(C)cc4cc23)cc1

- fluorescence lifetime (in ClC(Cl)Cl): 3.84 ns
SMILES: CCCCCCN1C(=O)c2cccc3cc(/N=C\c4ccc(N5CCOCC5)cc4)cc(c23)C1=O
